Data reported in patent US20020071842A1, “Soluble CD1 compositions and uses thereof” (priority 2000, published 2002).
Entries after “also recorded” stand apart in the source; their conditions may differ.

Experiments:
Assay in all cases: Plate-bound mCD1d fusion protein hybridoma stimulation assay (IL-2 ELISA)
Assay type in all cases: cell-based, mouse
14S.15.A hybridoma = conditions: 14S.15.A diverse TCR hybridoma; plate-bound mCD1d-IgGFc2a fusion protein preincubated with lipid antigen
How it was run: (§1)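 Lipid antigens were incubated with protein A-immobilized mCD1d fusion protein at pH 7.2 (or in citrate/phosphate buffer of specified pH, then neutralized), typically 40:1 antigen:protein. After washing, 1×10^5 hybridoma cells per well were added overnight, 16-20 hr, and IL-2 in supernatants was read by ELISA.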

14S.7.N hybridoma = conditions: 14S.7.N diverse TCR hybridoma; plate-bound mCD1d-IgGFc2a fusion protein preincubated with lipid antigen
How it was run: as §1

24.7.C hybridoma = conditions: 24 7.C NKT hybridoma; plate-bound mCD1d-IgGFc2a fusion protein preincubated with lipid antigen
How it was run: as §1

24.9.E hybridoma = conditions: for IL-2 secretion: 24.9 E NKT hybridoma, plate-bound mCD1d-IgGFc2a fusion protein preincubated with lipid antigen
How it was run: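 Protein A plates loaded with 400-600 ng/well mCD1d fusion protein plus lipid antigen (default 40:1 molar ratio), 24-48 hr at 37 °C, washed; hybridomas added at 1×10^5 cells/well for 16-20 hr. Supernatant IL-2 quantified by sandwich ELISA against murine IL-2 standard curve.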

DN32D3 hybridoma = conditions: DN32D3 NKT hybridoma; plate-bound mCD1d-IgGFc2a fusion protein preincubated with lipid antigen
How it was run: as §1

KT/23 hybridoma = conditions: KT/23 NKT hybridoma; plate-bound mCD1d-IgGFc2a fusion protein preincubated with lipid antigen
How it was run: as §1

KT/7 hybridoma = conditions: KT/7 NKT hybridoma; plate-bound mCD1d-IgGFc2a fusion protein preincubated with lipid antigen
How it was run: as §1

VII68 hybridoma = conditions: VII68 diverse TCR hybridoma; plate-bound mCD1d-IgGFc2a fusion protein preincubated with lipid antigen
How it was run: as §1

VIII24 hybridoma = conditions: VIII24 diverse TCR hybridoma; plate-bound mCD1d-IgGFc2a fusion protein preincubated with lipid antigen
How it was run: as §1

Vβ/9 hybridoma = conditions: Vβ/9 NKT hybridoma; plate-bound mCD1d-IgGFc2a fusion protein preincubated with lipid antigen
How it was run: as §1

XV104 hybridoma = conditions: XV104 diverse TCR hybridoma; plate-bound mCD1d-IgGFc2a fusion protein preincubated with lipid antigen
How it was run: as §1

XV19 hybridoma = conditions: XV19 diverse TCR hybridoma; plate-bound mCD1d-IgGFc2a fusion protein preincubated with lipid antigen
How it was run: as §1

14S.10.C hybridoma = conditions: 14S.10 C diverse TCR hybridoma; plate-bound mCD1d-IgGFc2a fusion protein preincubated with lipid antigen
How it was run: as §1

## β-galactosylceramide [β-GalCer]
14S.15.A hybridoma
  IL-2 secretion: 0 (A “0” indicates a mean of less than 50 pg/ml IL-2 was secreted)
14S.7.N hybridoma
  IL-2 secretion: 0 (A “0” indicates a mean of less than 50 pg/ml IL-2 was secreted)
24.7.C hybridoma
  IL-2 secretion: 0 (A “0” indicates a mean of less than 50 pg/ml IL-2 was secreted)
24.9.E hybridoma; 24.9.E hybridoma
  IL-2 response to mCD1d fusion protein pre-treated with purified or synthetic lipid: neither the unglycosylated ceramide, nor the closely related β-linked form, β-GalCer, were recognized
24.9.E hybridoma
  IL-2 secretion: 0 (A “0” indicates a mean of less than 50 pg/ml IL-2 was secreted)
DN32D3 hybridoma
  IL-2 secretion: 0 (A “0” indicates a mean of less than 50 pg/ml IL-2 was secreted)
KT/23 hybridoma
  IL-2 secretion: 0 (A “0” indicates a mean of less than 50 pg/ml IL-2 was secreted)
KT/7 hybridoma
  IL-2 secretion: 0 (A “0” indicates a mean of less than 50 pg/ml IL-2 was secreted)
VII68 hybridoma
  IL-2 secretion: 0 (A “0” indicates a mean of less than 50 pg/ml IL-2 was secreted)
VIII24 hybridoma
  IL-2 secretion: 0 (A “0” indicates a mean of less than 50 pg/ml IL-2 was secreted)
Vβ/9 hybridoma
  IL-2 secretion: 0 (A “0” indicates a mean of less than 50 pg/ml IL-2 was secreted)
XV104 hybridoma
  IL-2 secretion: 0 (A “0” indicates a mean of less than 50 pg/ml IL-2 was secreted)
XV19 hybridoma
  IL-2 secretion: 0 (A “0” indicates a mean of less than 50 pg/ml IL-2 was secreted)

## CCCCCCCCCCCCCCCCCCCCCCCCCC(=O)N[C@@H](CO[C@H]1O[C@H](CO)[C@H](O)[C@H](O)[C@H]1O)[C@H](O)[C@H](O)CCCCCCCCCCCCCC [α-GalCer, α-galactosylceramide]
14S.10.C hybridoma
  IL-2 secretion: 0 (A “0” indicates a mean of less than 50 pg/ml IL-2 was secreted)
14S.15.A hybridoma
  IL-2 secretion: + (“+” indicates 50-250 pg/ml)
14S.7.N hybridoma
  IL-2 secretion: 0 (A “0” indicates a mean of less than 50 pg/ml IL-2 was secreted)
24.7.C hybridoma
  IL-2 secretion: +++ (“+++” indicates greater than 1000 pg/ml IL-2)
24.9.E hybridoma; 24.9.E hybridoma
  IL-2 response to mCD1d fusion protein pre-treated with purified or synthetic lipid: responded strongly; also recorded: secreted IL-2 efficiently
24.9.E hybridoma; 24.9.E hybridoma, 3:1 molar ratio of antigen to protein, citrate/phosphate buffer
  enhancement of antigen recognition after pre-incubation at pH 4.0 compared to pH 7.5: approximately 4 fold
24.9.E hybridoma; 24.9.E hybridoma, pH 7.5 to pH 3.0 tested
  pre-incubation pH giving maximal IL-2 release: 4.0
24.9.E hybridoma; 24.9.E hybridoma, representative experiment, 19G11 blocking antibody included
  IL-2 when the 19G11 anti-mCD1d mAb was included: 103 pg/mL
24.9.E hybridoma; 24.9.E hybridoma, representative experiment, mCD1d fusion protein pre-treated with antigen
  mean IL-2 produced: 2,089 pg/ml
24.9.E hybridoma
  IL-2 secretion: +++ (“+++” indicates greater than 1000 pg/ml IL-2)
DN32D3 hybridoma
  IL-2 secretion: +++ (“+++” indicates greater than 1000 pg/ml IL-2)
KT/23 hybridoma
  IL-2 secretion: +++ (“+++” indicates greater than 1000 pg/ml IL-2)
KT/7 hybridoma
  IL-2 secretion: +++ (“+++” indicates greater than 1000 pg/ml IL-2)
VII68 hybridoma
  IL-2 secretion: 0 (A “0” indicates a mean of less than 50 pg/ml IL-2 was secreted)
VIII24 hybridoma
  IL-2 secretion: 0 (A “0” indicates a mean of less than 50 pg/ml IL-2 was secreted)
Vβ/9 hybridoma
  IL-2 secretion: ++ (“++” indicates 250-1000 pg/ml)
XV104 hybridoma
  IL-2 secretion: 0 (A “0” indicates a mean of less than 50 pg/ml IL-2 was secreted)
XV19 hybridoma
  IL-2 secretion: 0 (A “0” indicates a mean of less than 50 pg/ml IL-2 was secreted)

## unglycosylated ceramide
14S.10.C hybridoma
  IL-2 secretion: 0 (A “0” indicates a mean of less than 50 pg/ml IL-2 was secreted)
14S.15.A hybridoma
  IL-2 secretion: 0 (A “0” indicates a mean of less than 50 pg/ml IL-2 was secreted)
14S.7.N hybridoma
  IL-2 secretion: 0 (A “0” indicates a mean of less than 50 pg/ml IL-2 was secreted)
24.7.C hybridoma
  IL-2 secretion: 0 (A “0” indicates a mean of less than 50 pg/ml IL-2 was secreted)
24.9.E hybridoma; 24.9.E hybridoma
  IL-2 response to mCD1d fusion protein pre-treated with purified or synthetic lipid: neither the unglycosylated ceramide, nor the closely related β-linked form, β-GalCer, were recognized
24.9.E hybridoma
  IL-2 secretion: 0 (A “0” indicates a mean of less than 50 pg/ml IL-2 was secreted)
DN32D3 hybridoma
  IL-2 secretion: 0 (A “0” indicates a mean of less than 50 pg/ml IL-2 was secreted)
KT/23 hybridoma
  IL-2 secretion: 0 (A “0” indicates a mean of less than 50 pg/ml IL-2 was secreted)
KT/7 hybridoma
  IL-2 secretion: 0 (A “0” indicates a mean of less than 50 pg/ml IL-2 was secreted)
VII68 hybridoma
  IL-2 secretion: 0 (A “0” indicates a mean of less than 50 pg/ml IL-2 was secreted)
VIII24 hybridoma
  IL-2 secretion: 0 (A “0” indicates a mean of less than 50 pg/ml IL-2 was secreted)
Vβ/9 hybridoma
  IL-2 secretion: 0 (A “0” indicates a mean of less than 50 pg/ml IL-2 was secreted)
XV104 hybridoma
  IL-2 secretion: 0 (A “0” indicates a mean of less than 50 pg/ml IL-2 was secreted)
XV19 hybridoma
  IL-2 secretion: 0 (A “0” indicates a mean of less than 50 pg/ml IL-2 was secreted)

## phosphatidylinositol [PI]
14S.10.C hybridoma
  IL-2 secretion: 0 (A “0” indicates a mean of less than 50 pg/ml IL-2 was secreted)
14S.15.A hybridoma
  IL-2 secretion: 0 (A “0” indicates a mean of less than 50 pg/ml IL-2 was secreted)
14S.7.N hybridoma
  IL-2 secretion: + (“+” indicates 50-250 pg/ml)
24.7.C hybridoma
  IL-2 secretion: 0 (A “0” indicates a mean of less than 50 pg/ml IL-2 was secreted)
24.9.E hybridoma; 24.9.E hybridoma
  IL-2 response to mCD1d fusion protein pre-treated with purified or synthetic lipid: only modestly increased IL-2 secretion; also recorded: significantly less IL-2
24.9.E hybridoma
  IL-2 secretion: + (“+” indicates 50-250 pg/ml)
DN32D3 hybridoma
  IL-2 secretion: 0 (A “0” indicates a mean of less than 50 pg/ml IL-2 was secreted)
KT/23 hybridoma
  IL-2 secretion: + (“+” indicates 50-250 pg/ml)
KT/7 hybridoma
  IL-2 secretion: 0 (A “0” indicates a mean of less than 50 pg/ml IL-2 was secreted)
VII68 hybridoma
  IL-2 secretion: 0 (A “0” indicates a mean of less than 50 pg/ml IL-2 was secreted)
VIII24 hybridoma
  IL-2 secretion: 0 (A “0” indicates a mean of less than 50 pg/ml IL-2 was secreted)
Vβ/9 hybridoma
  IL-2 secretion: 0 (A “0” indicates a mean of less than 50 pg/ml IL-2 was secreted)
XV104 hybridoma
  IL-2 secretion: 0 (A “0” indicates a mean of less than 50 pg/ml IL-2 was secreted)
XV19 hybridoma
  IL-2 secretion: 0 (A “0” indicates a mean of less than 50 pg/ml IL-2 was secreted)
